Experimental data reported in publication PMC5762859, “Distribution analysis of epertinib in brain metastasis of HER2-positive breast cancer by imaging mass spectrometry and prospect for antitumor activity” (Scientific Reports, 2018).
Where two headings read alike, the source gives them in different places.

Key:
EGFR = tested on: EGFR; design: method as in PMID 24837299; settings: between 6 and 24 h after a single administration; cited from earlier work
[1] = Quantitative MALDI-IMS of drug in brain metastases of the breast cancer IVM (BR2, BR3); type: in vivo, mice; settings: for concentration at 4 h / concentration at 8 h: female, BALB/cAJcl-nu/nu, mouse, tumor (brain metastasis) in brain sections, po, 50 mg/kg, IMS; for concentration at 4 h: 4 h after single oral 50 mg/kg; for concentration at 8 h: 8 h after single oral 50 mg/kg
Method: BTB integrity in the IVM was assessed by measuring the fluorescence intensity of Texas-Red® dextran in the metastatic regions or brain parenchyma. Metastatic regions were defined as cancer cell clusters with DAPI staining in the same brain section (Fig. 2E and Supplementary Fig. S2C).
(§1) All experimental protocols were approved by the Institutional Animal Care and Use Committee of Shionogi & Co., Ltd (Osaka, Japan) and performed in accordance with the Guidelines for Animal Experiments of Shionogi & Co., Ltd, which meet the ethical standards required by the law and the guidelines about the experimental animals in Japan. Nude mice (BALB/cAJcl-nu/nu, CLEA Japan) were used for in vivo studies. All mice were female and six to nine weeks old at the time of implantation. […] Plasma was separated by centrifugation at 3,000 rpm for 15 min at 4 °C and stored at −80 °C until analysis. After blood sampling, brain tissues were immediately excised, frozen on dry ice, and stored at −80 °C prior to sectioning.
(§2) In the experimental brain metastasis of breast cancer or lung cancer (IVM), a cell suspension containing 2.0 × 10^6 cells (BR2), 1.7 × 10^6 cells (BR3), or 4.0 × 10^5 cells (NCI-H1975-luc) was implanted into the left ventricle of anaesthetized mice (Supplementary Fig. S1). In the intracranial implantation mice model, the cell suspension containing 3.1 × 10^5 cells was implanted into the craniotomy region (2 mm to the left of the bregma and 1 mm anterior to the coronal suture). For measurement of bioluminescence, 0.2 mL of 10 mg/mL luciferin solution was injected intravenously into anesthetized mice via the tail vein and the photons emitted from tumor measured by IVIS Imaging System 200 (Caliper Life Sciences).
Frozen brain tissues were cut into 10-µm sections using a cryostat (Leica CM3050 S; Leica Microsystems Inc., Wetzlar, Germany) at −20 °C. Sections were thaw-mounted onto glass microscope slides (Superfrost; Thermo Fisher Scientific Inc.) and stored at −80 °C until use. […] Standard solutions were spotted onto the glass microscope slides at 1 µL.
Matrix-coated sections were analyzed using a linear ion trap mass spectrometer with a MALDI source (MALDI LTQ XL, Thermo Fisher Scientific Inc.) and a nitrogen laser (337 nm; 60 Hz). Laser energy and raster step size were set at 30 µJ and 100 µm, respectively. All compounds were detected in positive-ion mode using the product ion scans of their [M + H]^+ ions. […] Heme B was detected by MS3 (m/z 616 → 557 → 498) as a blood biomarker.
Spectral data were acquired using Xcalibur 2.0.7 software (Thermo Fisher Scientific Inc.) and the localization and concentration of all compounds in the brain sections were analyzed using Quantinetix 1.7.10 software (ImaBiotech, Loos, France). The fluorescence intensity of Texas-Red® dextran and immunostaining intensity of HER2 were analyzed using a BZ-X analyzer (Keyence). Statistical analyses were performed using SAS software (version 9.4).

[2] = Plasma exposure after single oral administration in nude mice; type: in vivo; settings: mouse, single oral 50 mg/kg, read-out: Plasma exposure (AUC0–24 h)
[3] = design: method as in PMID 25434923; settings: human, cited from earlier work
[4] = Plasma concentration by LC-MS/MS in the breast cancer IVM; type: in vivo, mice; settings: female, BALB/cAJcl-nu/nu, mouse, po, 50 mg/kg; for concentration at 4 h: 4 h after single oral 50 mg/kg; for concentration at 8 h: 8 h after single oral 50 mg/kg
Description: as §1
(§3) The mixture was stirred for 10 min and centrifuged at 5,000 rpm for 5 min at 10 °C, and 1 µL of the supernatant was injected into the LC-MS/MS system. An ultra-HPLC system (Nexera LC-20A, Shimadzu Corp., Kyoto, Japan) with a triple quadrupole mass spectrometer (API 5000^TM, AB Sciex, Forester City, CA, USA) was used for LC/MS/MS analysis. The LC-MS/MS system was controlled by Analyst 1.4.2 (AB Sciex) software. Chromatographic separation was performed using a Cadenza CD-C18 HT column (50 × 2.0 mm i.d., 3 µm; Imtakt Corp., Kyoto, Japan).

[5] = Plasma and brain pharmacokinetics after single oral administration in mice implanted intracranially with MDA-MB-361 cells; settings: for concentration at 8 h / Tmax / concentration at 0.5 h / concentration at 1 h / concentration at 2 h / concentration at 4 h / concentration at 24 h / AUC(0-t) / Cmax: female, mouse, po; for AUC0–24 h, brain / Cmax, brain: single oral 20 mg/kg, mice
Description: as §1, §3

[6] = Plasma concentration in the lung cancer IVM; type: in vivo, mice; settings: female, BALB/cAJcl-nu/nu, mouse, 4 h after oral 100 mg/kg
Description: as §1, §3

HER2 = tested on: HER2; design: method as in PMID 24837299; settings: between 6 and 24 h after a single administration; cited from earlier work
[7] = Quantitative MALDI-IMS of drug in brain metastases of the lung cancer IVM (NCI-H1975-luc); type: in vivo, mice; settings: female, BALB/cAJcl-nu/nu, mouse, tumor (brain metastasis) in brain sections, 4 h after oral 100 mg/kg
Description: as §1, with “After blood sampling, brain tissues were immediately excised, frozen on dry ice, and stored at −80 °C prior to sectioning.” left out
as §2, with “In the intracranial implantation mice model, the cell suspension containing 3.1 × 10^5 cells was implanted into the craniotomy region (2 mm to the left of the bregma and 1 mm anterior to the coronal suture).” left out, “Sciences). […]” for “Sciences).”
Matrix-coated sections were analyzed using a linear ion trap mass spectrometer with a MALDI source (MALDI LTQ XL, Thermo Fisher Scientific Inc.) and a nitrogen laser (337 nm; 60 Hz). […] All compounds were detected in positive-ion mode using the product ion scans of their [M + H]^+ ions. […]

[8] = tested on: albumin and α-1 acid glycoprotein; design: method as in PMID 25547867; settings: cited from earlier work
[9] = BALB/cAJcl-nu/nu nude, brain, 20 mg/kg
[10] = BALB/cAJcl-nu/nu, brain, 20 mg/kg
[11] = BALB/cAJcl-nu/nu, plasma, 20 mg/kg

Structure (SMILES)	Inhibitory activity on EGFR phosphorylation at 24 h (EGFR)	concentration at 4 h ([1]; BR2 IVM)	concentration at 4 h ([1]; BR3 IVM)	concentration at 8 h ([1]; BR3 IVM)	AUC(0-t) [2]	concentration at 4 h ([4]; BR2 IVM)	concentration at 4 h ([4]; BR3 IVM)	concentration at 8 h ([4]; BR3 IVM)	concentration at 8 h [5, 9]	Tmax [5, 10]	concentration at 0.5 h [5, 10]	concentration at 1 h [5, 10]	concentration at 2 h [5, 10]	concentration at 4 h [5, 10]	concentration at 24 h [5, 10]	AUC(0-t) [5, 11]	Cmax [5, 11]	Tmax [5, 11]	concentration at 1 h [5, 11]	concentration at 2 h [5, 11]	further results
CC#CC(=NOCC1COCCN1)c1ccc2ncnc(Nc3ccc(OCc4cccc(F)c4)c(Cl)c3)c2c1 (stereo not shown) [Epertinib]	persisted at 24 h	2930 ng/g	2700 ng/g	2710 ng/g	9980 ng·h/mL	1440 ± 50 ng/mL	1300 ± 120 ng/mL	920 ± 300 ng/mL	23.8 ng/g	4 h	10.2 ng/g	12.8 ng/g	23 ng/g	36.3 ng/g	1.7 ng/g	1260 ng·h/mL	145 ng/mL	2 h	113 ng/mL	145 ng/mL	Concentration measured in brain metastases of the IVM with breast cancer ([1]; breast cancer IVM): 5.2 µM; Tumor concentration of epertinib relative to that of lapatinib ([1]; breast cancer IVMs, 4 h after administration): > 10 times; Plasma exposure (AUC0–24 h) ([3]; effective dose 800 mg/day): 9170 ng·h/mL; Brain concentration of epertinib relative to that of lapatinib ([5]; 4 h after oral administration, 20 mg/kg): approximately twice; concentration at 0.5 h ([5]; BALB/cAJcl-nu/nu, in vivo, 20 mg/kg): 99.8 ng/mL; concentration at 4 h [5, 11]: 115 ng/mL; concentration at 8 h [5, 11]: 54.7 ng/mL; concentration at 24 h [5, 11]: 2.1 ng/mL; AUC0–24 h, brain [5]: 409 ng·h/g; Cmax, brain [5]: 36 ng/g; concentration at 4 h [6]: 2760 ± 660 ng/mL; Inhibitory activity on HER2 phosphorylation at 24 h (HER2): persisted at 24 h; concentration at 4 h [7]: 6700 ng/g
CS(=O)(=O)CCNCc1ccc(-c2ccc3ncnc(Nc4ccc(OCc5cccc(F)c5)c(Cl)c4)c3c2)o1 [Lapatinib, N-{3-chloro-4-[(3-fluorobenzyl)oxy]phenyl}-6-[5-({[2-(methylsulfonyl)ethyl]amino}methyl)-2-furyl]-4-quinazolinamine, reference compound]	largely disappeared	160 ng/g	200 ng/g	190 ng/g	34100 ng·h/mL	6690 ± 1310 ng/mL	2140 ± 220 ng/mL	630 ng/mL	5.8 ng/g	4 h	11.8 ng/g	15.7 ng/g	10 ng/g	17 ng/g	0.4 ng/g	4110 ng·h/mL	985 ng/mL	0.5 h	763 ng/mL	413 ng/mL	Plasma exposure (AUC0–24 h) ([3]; effective dose 1250 mg/day): 27300 ng·h/mL; Binding to albumin and α-1 acid glycoprotein [8]: > 99.9%; concentration at 0.5 h [5, 11]: 984 ng/mL; concentration at 4 h [5, 11]: 461 ng/mL; concentration at 8 h [5, 11]: 99.6 ng/mL; concentration at 24 h [5, 11]: 5.4 ng/mL; AUC0–24 h, brain [5]: 144 ng·h/g; Cmax, brain [5]: 17 ng/g; concentration at 4 h [6]: 9360 ± 1780 ng/mL; Inhibitory activity on HER2 phosphorylation at 24 h (HER2): largely disappeared; concentration at 4 h [7]: 7080 ng/g
